Reference: patent US11925645B2, “Enhanced caffeinated beverage composition” (Ortho-Nutra, LLC, priority 2013, dated 2024)
Like-named read-outs stand apart in the source and are kept apart here.

What was measured:
[1] = Theacrine-caffeine interaction study: single oral dose plasma pharmacokinetics (LC-MS/MS, noncompartmental); assay type: in vivo, human
Excerpt: Theacrine pharmacokinetics in humans has not been systematically characterized. Therefore, one purpose of this study, among others, was to determine theacrine pharmacokinetics and dose-linearity following oral administration in humans.
Eight healthy nonsmokers, including 4 men and 4 women, were recruited for the experiment.
(§1) Study Design and Procedures. […] Theacrine, administered as iTeaCrine.®, was provided by Compound Solutions (Carlsbad, Calif). […] Treatment sequence was randomized using a 4×4 Latin square. There was an approximate 1-week washout period between treatments for all subjects.
(§2) Test Visit Procedures. […] A catheter was inserted into the forearm vein for blood sampling. Duplicate measurements of resting heart rate and blood pressure were taken pre-dose and prior to each timed blood sample. In addition, respiratory rate was counted in one minute and body temperature was measured using an ear scanning thermometer (dual readings taken at each time).
All subjects were instructed to consume their usual diet throughout the study period, with the exception of the actual days of testing. During the two days prior to each test day, subjects recorded all food and drink consumed and attempted to mimic this intake for the two-day period prior to subsequent visits. Diet records were analyzed using nutrient analysis software (Food Processor SQL, version 9.9; ESHA Research, Salem, Oreg.). For the actual test days, standardized meals (meal replacement food bars [Clif “Builder's 20 g Protein Bar”] and ready-to-drink shakes [Orgain Organic Nutrition™]) were provided to the subjects after sample collection at hour 2 and hour 6 (one shake and one-half bar at each time). Subjects were also provided with adequate meal replacement bars and shakes to consume following the 8 hour sample collection. (during their time outside the lab). Each bar contained 280 calories, 10 grams of fat, 29 grams of carbohydrate, and 20 grams of protein. Each shake contained 250 calories, 7 grams of fat, 32 grams of carbohydrate, and 16 grams of protein. No food other than what was provided to the subjects was allowed during each study day, including both time spent in the lab and outside the lab. […] The subjects returned the following morning for the 24 hour blood collection, again in a 10 hour fasted state. The same volume of meal replacement bars or shakes was consumed by each subject during each visit (both in lab and outside lab).
Pharmacokinetic Study. Plasma concentration-time data were evaluated using noncompartmental methods in Phoenix WinNonlin (version 7.0; Pharsight Corporation, Mountain View, Calif) with adjustment for lag time after oral administration. The maximum concentration (Cmax), lag time (talag), and time of maximum concentration (tmax) were determined from the plasma concentration versus time data. The area under the plasma concentration-time curve from time 0 to infinity (was calculated using the trapezoidal rule extrapolated to time infinity). […] The oral clearance (CL/F) was calculated by dividing the oral dose by AUC0-∞. The apparent volume of distribution during the terminal elimination phase (Vz/F) was calculated by dividing CL/F by k. […]

[2] = Fourteen day study of repetitive dosing of theacrine and caffeine: psychometric indices; assay type: in vivo, human
[3] = Single dose theacrine, caffeine or combination: subjective feelings on 10 cm visual analog scale; assay type: in vivo, human
Procedure: Subjects rated their subjective feelings using a 10 cm visual analog scale at 30 minutes, 1, 2, 3, 4, and 5 hours post ingestion and performed the trail making test (TMT) of cognitive performance at baseline and at hours 2 and 4 post ingestion.

[4] = Theacrine-caffeine interaction study: heart rate, blood pressure, rate pressure product, tolerability; details: at the doses tested, administered alone or in combination
Excerpt: as §1, §2
Differences between treatment group values were determined for systolic blood pressure (SBP), diastolic blood pressure (DBP), rate pressure product, and heart rate. Parametric data were analyzed by paired Student's t tests of mean differences in values between treatment groups. Statistical significance was defined a priori as a 2-sided or <0.05.

[5] = from baseline to 2 hours post-ingestion
[6] = both sexes, human, in vivo, 150 mg

Compound: Cn1c(=O)[nH]c2ncn(C)c2c1=O [Paraxanthine, paraxanthine]
- Tmax ([1]; both sexes, human, plasma, oral, 150 mg): 5 h
- dose-adjusted Cmax ([1]; both sexes, human, plasma, oral, 150 mg, paraxanthine in plasma, Condition 3: Caffeine 150 mg, dose-adjusted, mean ± SD): 7.3 ± 1.5 ng/mL/mg
- MRT ([1]; both sexes, human, plasma, oral, 150 mg, read-out: MRT): 19.1 ± 18.6 h
- half-life ([1]; both sexes, human, plasma, oral, 150 mg, read-out: t1/2 (converted)): 12.5 ± 12.7 h
- dose-adjusted Cmax ([1]; both sexes, human, plasma, oral, paraxanthine in plasma, Condition 4: Theacrine 125 mg + Caffeine 150 mg, dose-adjusted, mean ± SD): 8.4 ± 3.5 ng/mL/mg
- AUC ([1]; paraxanthine in plasma, Condition 3: Caffeine 150 mg, dose-adjusted, mean ± SD): 174 ± 152 ng·h/mL/mg
- AUC ([1]; paraxanthine in plasma, Condition 4: Theacrine 125 mg + Caffeine 150 mg, dose-adjusted, mean ± SD): 209 ± 202 ng·h/mL/mg

Compound: Cn1c(=O)c2c(ncn2C)n(C)c1=O [Caffeine, caffeine, reference compound]
- anxiety [2]: increased anxiety scores
- psychometric indices of energy, focus, concentration, motivation and mood [2]: decreasing levels of energy, focus and concentration by Day 5
- self-reported motivation to exercise ([3]; caffeine 150 mg, 125 mg theacrine and 150 mg caffeine): significantly increased
- motivation to exercise [3, 5]: significantly increased
- sense of energy [3, 5]: significantly increased
- subjective focus [3, 5]: significant increase
- effect on baseline hemodynamic parameters, e.g. heart rate and blood pressure [4]: no effect
- MRT [1, 6]: 8.4 ± 4.3 h
- half-life [1, 6]: 6.2 ± 3.8 h
- Vd/F ([1]; both sexes, human, in vivo, 150 mg, Vd/F): 33.5 ± 13.7 L
- dose-adjusted Cmax ([1]; both sexes, human, in vivo, po, 150 mg): 33.4 ± 9.5 ng/mL/mg
- caffeine pharmacokinetics following caffeine alone or caffeine plus theacrine co-ingestion ([1]; caffeine 150 mg vs theacrine 125 mg + caffeine 150 mg): similar
- AUC ([1]; human, in vivo, 150 mg): 262.0 ± 74.1 ng·h/mL/mg
- CL/F ([1]; human, in vivo, 150 mg): 4.1 ± 1.1 L/h
